Where “and” joins values, the source holds several entries; their conditions need not be identical. Equal values may be shown once. Read-outs that look alike come from different tables or passages of the source.
Legend:
[1] = test system: BT145 cells; assay: Annexin V / ViaDye Red flow cytometry (apoptosis); assay type: cell-based, human; settings: 75 nM QST
Text: (§1) For apoptosis analysis, the Dead Cell Apoptosis Kit with Annexin V FITC and Propidium Iodide for Flow Cytometry (Thermo Fisher Scientific, V13242) was followed using the manufacturer instructions, with the exception that we employed ViaDye Red Fixable Viability Dye Kit (Cytek, SKU R7-60008) instead of propidium iodide to label necrotic cells. Samples were run on the AURORA 3L 24 color spectrum cytometers (Cytek), unmixed by SpectroFlo application, and analyzed with FlowJo 10.8.1 software (Beckton Dickinson). Recommended negative controls for flow cytometry include (1) no Annexin V FITC and no ViaDye Red, (2) Annexin V FITC alone, and (3) ViaDye Red alone. The following gating strategy was used: debris population was excluded as the subset of cells with low forward scatter in the forward scatter area versus side scatter area plot. After excluding the debris, cells were gated on the Annexin versus ViaDye Red log plot with the classification as live (Annexin V negative, ViaDye Red negative), early apoptotic (Annexin V positive, ViaDye Red negative), late apoptotic (Annexin V positive, ViaDye Red positive), or necrotic (Annexin V negative, ViaDye Red positive). The frequency of the different cell subsets was reported as frequency on the total cell population, excluding debris. […]

[2] = test system: GB126 cells; assay: Annexin V / ViaDye Red flow cytometry (apoptosis); assay type: cell-based, human; settings: 86 nM QST
Text: as §1

[3] = Total and unbound QST in plasma and normal brain of non-tumor-bearing mice (equilibrium dialysis, LC-MS/MS); assay type: in vivo, athymic nude mice
Method: Insufficient drug exposure in the brain is a major hurdle in the treatment of brain tumors. […] On the last treatment day, blood and intact brains were harvested 2 hours after dosing with QST (Figure 6E). […] Each brain hemisphere was processed separately to perform matched PK and PD analyses from the same animal. […] For PD analyses, we homogenized entire hemispheres to obtain whole-tissue protein lysates from each mouse and assessed changes in histone H3 acetylation levels using immunoblotting.
Our study therefore emphasizes the importance of implementing a PK-PD–guided approach when evaluating or developing new drugs for GBM. Although PK analyses are now commonly performed in preclinical trials for a variety of different brain tumors, these studies typically measure only the total brain-to-plasma concentration ratio as a measure of drug-brain penetration ([74]–[76]). […] Therefore, we employed an equilibrium dialysis method combined with LC-MS/MS analysis to measure the unbound brain-to-plasma concentration, which represents the pharmacologically active fraction of a drug. A crucial finding in our study was the species-specific differences in QST stability. […] A recent study reported that hydroxamic acids such as QST are common substrates of a family of esterases (carboxylesterases) that are abundantly present in rodent plasma but absent in human plasma ([34], [78]). We confirmed that the addition of BNPP, a specific inhibitor of carboxylesterases, stabilized QST in mouse plasma. Our results therefore highlight a large discrepancy in the metabolic stability between rodent and human species. This is an important consideration for translating preclinical studies to the clinic because such differences may hinder further clinical development of promising drug candidates. Our data will thereby serve as a valuable resource and note of caution for future preclinical studies employing QST or similar drugs with species-specific stability.
QST concentrations in specimens were measured using reverse-phase LC on the AB SCIEX QTRAP6500+ LC-MS/MS system by operating electrospray in the positive ion mode. For liquid chromatographic separation, gradient elution was performed using a Phenomenex Kinetex F5 100 Å column (100 × 2.1 mm, 2.6 μm). The initial composition of the mobile phase was 70% phase A (0.1% formic acid in water) and 30% phase B (0.1% formic acid in 1:1 acetonitrile/methanol) with a 0.35 mL/min flow rate. Gradient elution was achieved as follows: mobile phase (B) was maintained at 30% from 0 to 0.3 minutes, increased to 95% from 0.3 to 0.8 minutes, maintained at 95% from 0.8 to 2.5 minutes, and decreased to 30% from 2.5 to 2.8 minutes. The total run time was 3.5 minutes. The internal standard used in this study was D8-infigratinib. The retention times for QST and D8-infigratinib were 1.6 and 1.8 minutes, respectively. Mass-to-charge ratio transitions were as follows: 395.20 → 144.00 (QST) and 568.08 → 321.00 (D8-infigratinib). LC-MS/MS analysis was performed using an Analyst 1.7 Chromatographic Data System. See Supplemental Methods for detailed PK experiments. […]
vortex-mixed for 10 s and centrifuged at 12000 g at 4 °C for 10 min. A 100-µL aliquot of the supernatant was transferred to an autosampler vial, and 5 µL was injected into the LC-MS/MS system for analysis. Whenever necessary, appropriate dilutions were made to accommodate the analysis of small volume samples.
Brain and Brain Tumor Sample Preparation
Normal brain and brain tumor tissue homogenates were prepared by 1:4 (mass/volume) ratio with PBS. Samples were homogenized under 6.00 m/s speed for 40 seconds with 3 cycles by Bead Ruptor Elite homogenizer (Omni International). Plasma was used as a surrogate matrix for brain/tumor homogenate. Brain homogenate samples from in vivo studies were prepared as described for plasma samples. Analyte and IS were extracted by protein precipitation with methanol containing IS. After centrifugation at 12000 rpm for 10 minutes at 4 °C, 5 µL of […]

[4] = representative plot, quadrant assigned by inference
[5] = normal mice, individual mice, n=6

Cn1cc(CNCC2CCN(c3ncc(C(=O)NO)cn3)CC2)c2ccccc21 [QST, quisinostat]
Apoptotic, Annexin+ ViaDye - (%) ([1]; replicates): 60% and 53.4% and 59.8%
Dead, Annexin+ ViaDye + (%) ([1]; replicates): 5.66% and 6.66% and 4.49%
ViaDyeRed / Annexin V-FITC dot plot quadrant, live (Annexin-, ViaDye-) [1, 4]: 39.3
ViaDyeRed / Annexin V-FITC dot plot quadrant, necrotic (Annexin-, ViaDye+) [1, 4]: 0.65
Apoptotic, Annexin+ ViaDye - (%) ([2]; replicates): 9.54% and 12.5% and 8.59%
Dead, Annexin+ ViaDye + (%) ([2]; replicates): 12.7% and 14.5% and 9.91%
ViaDyeRed / Annexin V-FITC dot plot quadrant, live (Annexin-, ViaDye-) [2, 4]: 71.9
ViaDyeRed / Annexin V-FITC dot plot quadrant, necrotic (Annexin-, ViaDye+) [2, 4]: 5.85
mean unbound QST level, fold lower in brain than in plasma ([3]; 10 mg/kg IP MWF 2 weeks, 2 hours after last dose): more than 70 fold
concentration at 2 h ([3]; athymic nude, mouse, brain, intraperitoneal, 10 mg/kg, normal mouse brains, individual mice, n=6, read-out: Total QST, brain): 45.3 nM
concentration at 2 h ([3]; athymic nude, mouse, brain, intraperitoneal, 10 mg/kg, normal mouse brains, individual mice, n=6, read-out: Unbound QST, brain): 1.65 nM
concentration at 2 h ([3]; athymic nude, mouse, brain, ip, 10 mg/kg, normal brain, 10 mg/kg IP MWF 2 weeks, 2 hours after last dose, read-out: unbound drug concentration in the brain): ~1.7 nM
Total QST, plasma [3, 5]: 464.014 nM and 281.833 nM and 297.864 nM and 455.378 nM and 301.853 nM and 226.232 nM
UNBOUND [QST], Plasma [3, 5]: 117.95 nM and 180.33 nM and 119.53 nM and 89.59 nM and 183.75 nM and 111.61 nM
concentration at 2 h ([3]; normal mouse brains, individual mice, n=6, read-out: Total QST, brain): 26.24 nM and 32.91 nM and 41.935 nM and 27.27 nM and 31.45 nM
concentration at 2 h ([3]; normal mouse brains, individual mice, n=6, read-out: Unbound QST, brain): 2.1 nM and 1.36 nM and 1.57 nM and 2.27 nM and 1.31 nM
